Assays:
Candida albicans [1] = assay: Synergistic antifungal activity against fluconazole-resistant Candida albicans 901 assessed as inhibition of fungal growth in presence of fluconazole by checker board microdilution assay; format: functional
Candida albicans [2] = assay: Synergistic antifungal activity against fluconazole-resistant Candida albicans 904 assessed as inhibition of fungal growth in presence of fluconazole by checker board microdilution assay; format: functional
Candida albicans [3] = assay: Synergistic antifungal activity against fluconazole-resistant Candida albicans 632 assessed as inhibition of fungal growth in presence of fluconazole by checker board microdilution assay; format: functional
Candida albicans [4] = assay: Synergistic antifungal activity against fluconazole-resistant Candida albicans 100 assessed as inhibition of fungal growth in presence of fluconazole by checker board microdilution assay; format: functional
Candida albicans [5] = assay: Synergistic antifungal activity against fluconazole-resistant Candida albicans 103 assessed as inhibition of fungal growth in presence of fluconazole by checker board microdilution assay; format: functional
Candida albicans [6] = assay: Synergistic antifungal activity against fluconazole-resistant Candida albicans 311 assessed as inhibition of fungal growth in presence of fluconazole by checker board microdilution assay; format: functional
Candida albicans [7] = assay: Antifungal activity against fluconazole-resistant Candida albicans 901 assessed as inhibition of fungal growth by checker board microdilution assay; format: functional
Candida albicans [8] = assay: Antifungal activity against fluconazole-resistant Candida albicans 904 assessed as inhibition of fungal growth by checker board microdilution assay; format: functional
Candida albicans [9] = assay: Antifungal activity against fluconazole-resistant Candida albicans 632 assessed as inhibition of fungal growth by checker board microdilution assay; format: functional
Candida albicans [10] = assay: Antifungal activity against fluconazole-resistant Candida albicans 100 assessed as inhibition of fungal growth by checker board microdilution assay; format: functional
Candida albicans [11] = assay: Antifungal activity against fluconazole-resistant Candida albicans 103 assessed as inhibition of fungal growth by checker board microdilution assay; format: functional
Candida albicans [12] = assay: Antifungal activity against fluconazole-resistant Candida albicans 311 assessed as inhibition of fungal growth by checker board microdilution assay; format: functional
Candida albicans [13] = assay: Synergetic antifungal activity against fluconazole-resistant Candida albicans 901 assessed as fractional inhibitory concentration index in presence of fluconazole by checker board microdilution assay; format: functional
Candida albicans [14] = assay: Synergetic antifungal activity against fluconazole-resistant Candida albicans 904 assessed as fractional inhibitory concentration index in presence of fluconazole by checker board microdilution assay; format: functional
Candida albicans [15] = assay: Synergetic antifungal activity against fluconazole-resistant Candida albicans 632 assessed as fractional inhibitory concentration index in presence of fluconazole by checker board microdilution assay; format: functional
Candida albicans [16] = assay: Synergetic antifungal activity against fluconazole-resistant Candida albicans 100 assessed as fractional inhibitory concentration index in presence of fluconazole by checker board microdilution assay; format: functional
Candida albicans [17] = assay: Synergetic antifungal activity against fluconazole-resistant Candida albicans 103 assessed as fractional inhibitory concentration index in presence of fluconazole by checker board microdilution assay; format: functional
Candida albicans [18] = assay: Synergetic antifungal activity against fluconazole-resistant Candida albicans 311 assessed as fractional inhibitory concentration index in presence of fluconazole by checker board microdilution assay; format: functional
A549 = assay: Cytotoxicity against human A549 cell assessed as inhibition of cell growth after 24 hrs by MTT assay; format: functional, cell-based; settings: A549, 24 h
MCF7 = assay: Cytotoxicity against human MCF7 cell assessed as inhibition of cell growth after 24 hrs by MTT assay; format: functional, cell-based; settings: MCF7, 24 h
HepG2 = assay: Cytotoxicity against human HepG2 cell assessed as inhibition of cell growth after 24 hrs by MTT assay; format: functional, cell-based; settings: HepG2, 24 h
[19] = Cytotoxicity against human THLE-2 cell assessed as inhibition of cell growth after 24 hrs by MTT assay; format: toxicity, cell-based; settings: THLE-2 cells
[20] = Cytotoxicity against human BEAS-2B cell assessed as inhibition of cell growth after 24 hrs by MTT assay; format: toxicity, cell-based; settings: BEAS-2B cells
[21] = Cytotoxicity against mouse NIH3T3 cell assessed as inhibition of cell growth after 24 hrs by MTT assay; format: toxicity, cell-based; settings: NIH3T3 cells
RAW264.7 = assay: Cytotoxicity against mouse RAW264.7 cell assessed as inhibition of cell growth after 24 hrs by MTT assay; format: functional, cell-based; settings: RAW264.7, 24 h
[22] = Cytotoxicity against mouse BV-2 cell assessed as inhibition of cell growth after 24 hrs by MTT assay; format: toxicity, cell-based; settings: BV-2 cells
[23] = Metabolic stability in human liver microsomes assessed as half life in presence of NADPH cofactor under shaking condition for 10 mins measured after 5 to 60 mins by LC-MS/MS analysis; format: ADME, Microsome; settings: time 15-70 min
[24] = Metabolic stability in human liver microsomes assessed as microsomal intrinsic clearance in presence of NADPH cofactor under shaking condition for 10 mins measured after 5 to 60 mins by LC-MS/MS analysis; format: ADME, Microsome; settings: time 15-70 min
[25] = Metabolic stability in human liver microsomes assessed as intrinsic clearance in presence of NADPH cofactor under shaking condition for 10 mins measured after 5 to 60 mins by LC-MS/MS analysis; format: ADME, Microsome; settings: time 15-70 min
[26] = Metabolic stability in human liver microsomes assessed as compound remaining in presence of NADPH cofactor under shaking condition for 10 mins measured after 60 mins by LC-MS/MS analysis; format: ADME, Microsome; settings: time 70 min, read-out: Stability
[27] = Stability in human plasma assessed as compound remaining at 120 mins by LC-MS/MS analysis; format: ADME, cell-free; settings: read-out: Stability
[28] = Stability in human plasma assessed as half life at 120 mins by LC-MS/MS analysis; format: ADME, cell-free
CYP1A2 = molecular target: T1, CYP1A2 (Homo sapiens, UniProt P05177); assay: Inhibition of CYP1A2 in human liver microsome at 10 uM using phenacetin as substrate incubated for 10 mins in presence of NADPH cofactor by LC-MS/MS analysis; format: ADME; settings: liver microsomes, probe phenacetin
T1 sequence (P05177 whole entry): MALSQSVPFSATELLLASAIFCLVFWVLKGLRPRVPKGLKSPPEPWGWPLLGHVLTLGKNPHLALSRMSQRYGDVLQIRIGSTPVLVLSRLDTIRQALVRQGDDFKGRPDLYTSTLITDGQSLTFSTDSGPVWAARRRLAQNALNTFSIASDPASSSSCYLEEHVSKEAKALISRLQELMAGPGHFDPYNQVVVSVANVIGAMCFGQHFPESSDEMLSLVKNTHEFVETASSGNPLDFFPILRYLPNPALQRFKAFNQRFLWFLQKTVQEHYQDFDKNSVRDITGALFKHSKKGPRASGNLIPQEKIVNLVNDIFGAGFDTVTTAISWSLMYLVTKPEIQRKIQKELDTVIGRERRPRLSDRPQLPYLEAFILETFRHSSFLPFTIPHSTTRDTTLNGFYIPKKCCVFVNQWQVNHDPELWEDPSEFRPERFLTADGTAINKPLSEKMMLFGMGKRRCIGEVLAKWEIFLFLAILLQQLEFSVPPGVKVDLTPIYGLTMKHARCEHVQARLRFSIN

CYP2C9 = CYP2C9 (Homo sapiens, UniProt P11712); assay: Inhibition of CYP2C9 in human liver microsome at 10 uM using diclofenac as substrate incubated for 10 mins in presence of NADPH cofactor by LC-MS/MS analysis; format: ADME; settings: liver microsomes, probe diclofenac
CYP2C19 = CYP2C19 (Homo sapiens, UniProt P33261); assay: Inhibition of CYP2C19 in human liver microsome at 10 uM using S-mephenytoin as substrate incubated for 10 mins in presence of NADPH cofactor by LC-MS/MS analysis; format: ADME; settings: liver microsomes, probe S-mephenytoin
CYP2D6 = CYP2D6 (Homo sapiens, UniProt P10635); assay: Inhibition of CYPD6 in human liver microsome at 10 uM using dextromethorphan as substrate incubated for 10 mins in presence of NADPH cofactor by LC-MS/MS analysis; format: ADME; settings: liver microsomes, probe dextromethorphan
CYP3A4 = CYP3A4 (Homo sapiens, UniProt P08684); assay: Inhibition of CYP3A4 in human liver microsome at 10 uM using midazolam as substrate incubated for 10 mins in presence of NADPH cofactor by LC-MS/MS analysis; format: ADME; settings: liver microsomes, probe midazolam
Candida albicans [29] = assay: Potentiation of fluconazole-induced antifungal activity against fluconazole-resistant Candida albicans 901 assessed as fluconazole MIC by checker board microdilution assay; format: functional
Candida albicans [30] = assay: Potentiation of fluconazole-induced antifungal activity against fluconazole-resistant Candida albicans 904 assessed as fluconazole MIC by checker board microdilution assay; format: functional
Candida albicans [31] = assay: Potentiation of fluconazole-induced antifungal activity against fluconazole-resistant Candida albicans 632 assessed as fluconazole MIC by checker board microdilution assay; format: functional
Candida albicans [32] = assay: Potentiation of fluconazole-induced antifungal activity against fluconazole-resistant Candida albicans 100 assessed as fluconazole MIC by checker board microdilution assay; format: functional
Candida albicans [33] = assay: Potentiation of fluconazole-induced antifungal activity against fluconazole-resistant Candida albicans 103 assessed as fluconazole MIC by checker board microdilution assay; format: functional
Candida albicans [34] = assay: Potentiation of fluconazole-induced antifungal activity against fluconazole-resistant Candida albicans 311 assessed as fluconazole MIC by checker board microdilution assay; format: functional

CYP2C19, sequence (P33261 whole entry): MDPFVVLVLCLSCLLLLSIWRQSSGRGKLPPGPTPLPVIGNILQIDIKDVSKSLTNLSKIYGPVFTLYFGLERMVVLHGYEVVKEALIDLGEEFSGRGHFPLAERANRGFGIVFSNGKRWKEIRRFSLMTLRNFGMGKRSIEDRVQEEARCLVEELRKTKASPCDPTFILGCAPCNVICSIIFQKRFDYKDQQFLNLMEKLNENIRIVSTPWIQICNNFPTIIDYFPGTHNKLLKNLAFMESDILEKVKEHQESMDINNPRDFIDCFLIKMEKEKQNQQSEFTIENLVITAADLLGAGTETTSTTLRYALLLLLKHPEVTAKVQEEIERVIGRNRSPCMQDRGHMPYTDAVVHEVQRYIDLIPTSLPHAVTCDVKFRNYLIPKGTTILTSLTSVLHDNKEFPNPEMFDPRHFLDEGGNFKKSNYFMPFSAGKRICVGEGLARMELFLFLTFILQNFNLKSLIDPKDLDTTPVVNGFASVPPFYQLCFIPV
CYP3A4, sequence (P08684 whole entry): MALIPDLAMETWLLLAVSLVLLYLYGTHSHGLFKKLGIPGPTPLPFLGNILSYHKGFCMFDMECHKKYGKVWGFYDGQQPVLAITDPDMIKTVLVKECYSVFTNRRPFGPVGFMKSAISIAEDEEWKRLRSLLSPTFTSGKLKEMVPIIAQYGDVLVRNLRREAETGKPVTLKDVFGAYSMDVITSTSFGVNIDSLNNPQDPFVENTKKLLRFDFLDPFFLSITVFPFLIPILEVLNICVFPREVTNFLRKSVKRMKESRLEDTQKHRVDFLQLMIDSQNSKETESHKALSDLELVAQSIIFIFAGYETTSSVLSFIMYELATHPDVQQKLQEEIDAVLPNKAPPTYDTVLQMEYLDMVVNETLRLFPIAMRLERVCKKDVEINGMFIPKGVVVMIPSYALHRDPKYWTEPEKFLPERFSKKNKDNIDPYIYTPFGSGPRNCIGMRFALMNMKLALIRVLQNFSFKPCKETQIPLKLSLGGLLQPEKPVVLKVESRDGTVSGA
CYP2D6, sequence (P10635 whole entry): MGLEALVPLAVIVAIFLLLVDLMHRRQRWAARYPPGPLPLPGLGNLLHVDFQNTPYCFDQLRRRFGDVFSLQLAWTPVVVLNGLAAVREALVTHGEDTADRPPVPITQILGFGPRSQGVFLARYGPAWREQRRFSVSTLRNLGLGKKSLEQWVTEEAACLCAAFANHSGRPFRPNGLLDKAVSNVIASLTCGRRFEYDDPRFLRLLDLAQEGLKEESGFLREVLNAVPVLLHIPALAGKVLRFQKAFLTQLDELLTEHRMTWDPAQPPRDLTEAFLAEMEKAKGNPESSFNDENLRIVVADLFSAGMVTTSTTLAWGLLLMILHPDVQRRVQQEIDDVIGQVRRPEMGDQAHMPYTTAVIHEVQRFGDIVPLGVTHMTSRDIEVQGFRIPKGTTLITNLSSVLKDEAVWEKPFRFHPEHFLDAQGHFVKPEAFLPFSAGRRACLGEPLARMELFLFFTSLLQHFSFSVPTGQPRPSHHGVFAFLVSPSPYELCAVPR
CYP2C9, sequence (P11712 whole entry): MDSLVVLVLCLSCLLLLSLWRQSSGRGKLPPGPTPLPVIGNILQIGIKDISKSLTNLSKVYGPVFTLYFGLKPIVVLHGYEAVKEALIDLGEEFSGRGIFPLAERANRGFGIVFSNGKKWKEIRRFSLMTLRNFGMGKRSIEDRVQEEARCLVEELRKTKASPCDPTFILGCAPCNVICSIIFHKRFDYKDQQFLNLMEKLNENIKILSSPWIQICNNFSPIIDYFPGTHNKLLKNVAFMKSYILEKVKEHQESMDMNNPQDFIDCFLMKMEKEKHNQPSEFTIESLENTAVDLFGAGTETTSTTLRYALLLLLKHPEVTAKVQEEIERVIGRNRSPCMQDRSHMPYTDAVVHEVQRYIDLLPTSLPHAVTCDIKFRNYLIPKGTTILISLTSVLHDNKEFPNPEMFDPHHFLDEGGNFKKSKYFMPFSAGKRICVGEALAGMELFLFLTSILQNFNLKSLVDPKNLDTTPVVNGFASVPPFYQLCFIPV

**Q.** What does the source list for `CNC(=O)c1noc(-c2cc(-c3ccc(C)cc3)c(O)cc2O)c1-c1ccc(CN2CCCCC2)cc1`?
**A.** MIC80 (Candida albicans [1]): 0.25 µg/mL; MIC80 (Candida albicans [2]): 0.125 µg/mL; MIC80 (Candida albicans [3]): 2 µg/mL; MIC80 (Candida albicans [4]): 1 µg/mL; MIC80 (Candida albicans [5]): 0.5 µg/mL; MIC80 (Candida albicans [6]): 0.5 µg/mL; MIC80 (Candida albicans [7]): > 64 µg/mL; MIC80 (Candida albicans [8]): > 64 µg/mL; MIC80 (Candida albicans [9]): > 64 µg/mL; MIC80 (Candida albicans [10]): > 64 µg/mL; MIC80 (Candida albicans [11]): > 64 µg/mL; MIC80 (Candida albicans [12]): > 64 µg/mL; fractional inhibitory concentration index (FICI) (Candida albicans [13]): 0.02; fractional inhibitory concentration index (FICI) (Candida albicans [14]): 0.01; fractional inhibitory concentration index (FICI) (Candida albicans [15]): 0.062; fractional inhibitory concentration index (FICI) (Candida albicans [16]): 0.047; fractional inhibitory concentration index (FICI) (Candida albicans [17]): 0.039; fractional inhibitory concentration index (FICI) (Candida albicans [18]): 0.023; IC50 (A549): 10.8 µM; IC50 (MCF7): 15.6 µM; IC50 (HepG2): 24.9 µM; IC50 at 24 h [19]: 2.79 µM; IC50 at 24 h [20]: 11.6 µM; IC50 at 24 h [21]: 0.46 µM; IC50 (RAW264.7): 3.65 µM; IC50 at 24 h [22]: 3.04 µM; half-life [23]: 0.722 h; CLint [24]: 32 µL/min/mg; CLint [25]: 28.8 mL/min/kg; remaining at 1.167 h [26]: 38.3%; remaining at 2 h [27]: 55.2%; half-life [28]: 2.18 h; inhibition at 10 min, 10 µM (CYP1A2): 17.7%; inhibition at 10 min, 10 µM (CYP2C9): 44.6%; inhibition at 10 min, 10 µM (CYP2C19): 48.5%; inhibition at 10 min, 10 µM (CYP2D6): 24.8%; inhibition at 10 min, 10 µM (CYP3A4): 17.7%; MIC80 (Candida albicans [29]): 1 µg/mL; MIC80 (Candida albicans [30]): 0.5 µg/mL; MIC80 (Candida albicans [31]): 2 µg/mL; MIC80 (Candida albicans [32]): 2 µg/mL; MIC80 (Candida albicans [33]): 2 µg/mL; MIC80 (Candida albicans [34]): 1 µg/mL
